Assay results as given in PubChem BioAssay (NCI).
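Five concentrations, 48 hours, 96-well plates. Abbreviation: GI50, concentration required for 50% inhibition of growth. TGI: concentration producing complete growth inhibition.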

Key:
Assay in all cases: NCI-60 cell line screen, 48 h
OVCAR-4 ovarian = system: OVCAR-4 ovarian
DU-145 prostate = system: DU-145 prostate
A549 NSCLC = system: A549 NSCLC
OVCAR-3 ovarian = system: OVCAR-3 ovarian
RPMI-8226 leukemia = system: RPMI-8226 leukemia
EKVX NSCLC = system: EKVX NSCLC
PC-3 prostate = system: PC-3 prostate
K-562 leukemia = system: K-562 leukemia
NCI-H226 lung = system: NCI-H226 lung
MCF7 breast = system: MCF7 breast
SF-268 CNS = system: SF-268 CNS
786-0 renal = system: 786-0 renal
SNB-19 CNS = system: SNB-19 CNS
SR leukemia = system: SR leukemia
SK-MEL-2 melanoma = system: SK-MEL-2 melanoma
A498 renal = system: A498 renal
HOP-62 NSCLC = system: HOP-62 NSCLC
UACC-257 melanoma = system: UACC-257 melanoma
KM12 colon = system: KM12 colon
RXF 393 renal = system: RXF 393 renal
CAKI-1 renal = system: CAKI-1 renal
IGROV1 ovarian = system: IGROV1 ovarian
SK-OV-3 ovarian = system: SK-OV-3 ovarian
COLO 205 colon = system: COLO 205 colon
LOX IMVI melanoma = system: LOX IMVI melanoma
SN12C renal = system: SN12C renal
SF-295 CNS = system: SF-295 CNS
NCI-H23 lung = system: NCI-H23 lung
CCRF-CEM leukemia = system: CCRF-CEM leukemia
OVCAR-5 ovarian = system: OVCAR-5 ovarian
ACHN renal = system: ACHN renal
NCI-H460 lung = system: NCI-H460 lung
OVCAR-8 ovarian = system: OVCAR-8 ovarian
HT29 colon = system: HT29 colon
HCC-2998 colon = system: HCC-2998 colon
SNB-75 CNS = system: SNB-75 CNS
HL-60(TB) leukemia = system: HL-60(TB) leukemia
BT-549 breast = system: BT-549 breast
MOLT-4 leukemia = system: MOLT-4 leukemia
SK-MEL-5 melanoma = system: SK-MEL-5 melanoma
NCI/ADR-RES ovarian = system: NCI/ADR-RES ovarian
NCI-H522 lung = system: NCI-H522 lung
MDA-MB-231 breast = system: MDA-MB-231 breast
SF-539 CNS = system: SF-539 CNS
MDA-MB-435 = system: MDA-MB-435
HOP-92 NSCLC = system: HOP-92 NSCLC
U251 CNS = system: U251 CNS
HCT-15 colon = system: HCT-15 colon
TK-10 renal = system: TK-10 renal
HS 578T breast = system: HS 578T breast
M14 melanoma = system: M14 melanoma
SW-620 colon = system: SW-620 colon
MALME-3M melanoma = system: MALME-3M melanoma
HCT-116 colon = system: HCT-116 colon
UACC-62 melanoma = system: UACC-62 melanoma

O=C(COc1cc(O)c2c(=O)cc(-c3ccccc3)oc2c1)Nc1ccccc1C(F)(F)F
GI50 (OVCAR-4 ovarian): 2.45 µM
TGI (OVCAR-4 ovarian): 5.94 µM
GI50 (DU-145 prostate): 7.97 µM
TGI (DU-145 prostate): > 100 µM
GI50 (A549 NSCLC): 1.71 µM
TGI (A549 NSCLC): 3.75 µM
GI50 (OVCAR-3 ovarian): 2.12 µM
TGI (OVCAR-3 ovarian): 4.12 µM
GI50 (RPMI-8226 leukemia): 7.03 µM
TGI (RPMI-8226 leukemia): > 100 µM
GI50 (EKVX NSCLC): 9.37 µM
TGI (EKVX NSCLC): 62.4 µM
GI50 (PC-3 prostate): 5.75 µM
TGI (PC-3 prostate): > 100 µM
GI50 (K-562 leukemia): 5.03 µM
TGI (K-562 leukemia): > 100 µM
GI50 (NCI-H226 lung): 2.28 µM
TGI (NCI-H226 lung): 6.48 µM
GI50 (MCF7 breast): 7.4 µM
TGI (MCF7 breast): > 100 µM
GI50 (SF-268 CNS): 4.94 µM
TGI (SF-268 CNS): 26.1 µM
GI50 (786-0 renal): 2.01 µM
TGI (786-0 renal): 4.15 µM
GI50 (SNB-19 CNS): 4.17 µM
TGI (SNB-19 CNS): 21.7 µM
GI50 (SR leukemia): 4.44 µM
TGI (SR leukemia): > 100 µM
GI50 (SK-MEL-2 melanoma): 15.1 µM
TGI (SK-MEL-2 melanoma): 38 µM
GI50 (A498 renal): 4.04 µM
TGI (A498 renal): 17.8 µM
GI50 (HOP-62 NSCLC): 2.62 µM
TGI (HOP-62 NSCLC): 8.19 µM
GI50 (UACC-257 melanoma): > 100 µM
TGI (UACC-257 melanoma): > 100 µM
GI50 (KM12 colon): 8.17 µM
TGI (KM12 colon): > 100 µM
GI50 (RXF 393 renal): 2.21 µM
TGI (RXF 393 renal): 6.34 µM
GI50 (CAKI-1 renal): 3.74 µM
TGI (CAKI-1 renal): 18.7 µM
GI50 (IGROV1 ovarian): 3.61 µM
TGI (IGROV1 ovarian): 15.9 µM
GI50 (SK-OV-3 ovarian): 14.9 µM
TGI (SK-OV-3 ovarian): 50.7 µM
GI50 (COLO 205 colon): 8.04 µM
TGI (COLO 205 colon): > 100 µM
GI50 (LOX IMVI melanoma): 4.74 µM
TGI (LOX IMVI melanoma): 22.6 µM
GI50 (SN12C renal): 4.02 µM
TGI (SN12C renal): > 100 µM
GI50 (SF-295 CNS): 2.94 µM
TGI (SF-295 CNS): 9.13 µM
GI50 (NCI-H23 lung): 3.07 µM
TGI (NCI-H23 lung): 11.6 µM
GI50 (CCRF-CEM leukemia): 19.6 µM
TGI (CCRF-CEM leukemia): 64.1 µM
GI50 (OVCAR-5 ovarian): 7.18 µM
TGI (OVCAR-5 ovarian): > 100 µM
GI50 (ACHN renal): 2.91 µM
TGI (ACHN renal): 9.63 µM
GI50 (NCI-H460 lung): 2.59 µM
TGI (NCI-H460 lung): 6.68 µM
GI50 (OVCAR-8 ovarian): 3.67 µM
TGI (OVCAR-8 ovarian): 32.1 µM
GI50 (HT29 colon): 6.48 µM
TGI (HT29 colon): > 100 µM
GI50 (HCC-2998 colon): > 100 µM
TGI (HCC-2998 colon): > 100 µM
GI50 (SNB-75 CNS): 1.65 µM
TGI (SNB-75 CNS): 4.41 µM
GI50 (HL-60(TB) leukemia): > 100 µM
TGI (HL-60(TB) leukemia): > 100 µM
GI50 (BT-549 breast): 5.19 µM
TGI (BT-549 breast): 38.9 µM
GI50 (MOLT-4 leukemia): 5.46 µM
TGI (MOLT-4 leukemia): > 100 µM
GI50 (SK-MEL-5 melanoma): 4.1 µM
TGI (SK-MEL-5 melanoma): 25.4 µM
GI50 (NCI/ADR-RES ovarian): 3.45 µM
TGI (NCI/ADR-RES ovarian): 22.5 µM
GI50 (NCI-H522 lung): 6.77 µM
TGI (NCI-H522 lung): > 100 µM
GI50 (MDA-MB-231 breast): 2.04 µM
TGI (MDA-MB-231 breast): 5.26 µM
GI50 (SF-539 CNS): 2.21 µM
TGI (SF-539 CNS): 5.5 µM
GI50 (MDA-MB-435): 6.03 µM
TGI (MDA-MB-435): > 100 µM
GI50 (HOP-92 NSCLC): 2.13 µM
TGI (HOP-92 NSCLC): 6.71 µM
GI50 (U251 CNS): 2.01 µM
TGI (U251 CNS): 4.45 µM
GI50 (HCT-15 colon): 3.28 µM
TGI (HCT-15 colon): 21.1 µM
GI50 (TK-10 renal): 1.88 µM
TGI (TK-10 renal): 3.71 µM
GI50 (HS 578T breast): 2.6 µM
TGI (HS 578T breast): 7.79 µM
GI50 (M14 melanoma): 27.6 µM
TGI (M14 melanoma): > 100 µM
GI50 (SW-620 colon): 3.56 µM
TGI (SW-620 colon): > 100 µM
GI50 (MALME-3M melanoma): 3.17 µM
TGI (MALME-3M melanoma): > 100 µM
GI50 (HCT-116 colon): 1.83 µM
TGI (HCT-116 colon): 4.06 µM
GI50 (UACC-62 melanoma): 6.58 µM
TGI (UACC-62 melanoma): > 100 µM
